# Measurements taken from patent US4321381A, “Ergot derivatives” (Farmitalia Carlo Erba S.p.A., priority 1978, dated 1982).
# Columns and labels:
# [1] = system: spontaneously hypertensive male rats, strain MHS; assay: Anti-hypertensive activity in the spontaneously hypertensive rat (MHS): blood pressure and heart rate at the tail; type: in vivo
# Description: 1. Spontaneously Hypertensive Rat (MHS)
# Four spontaneously hypertensive male rats, strain MHS, weight 250 to 300 g for each group were used. The animals were treated for four consecutive days. The drugs were administered by gastric gavage while suspended in 5% arabic gum (0.2 ml/100 g body weight), and blood pressure (BP) and heart rate (HR) were measured at the tail by BP Recorder W+W. Blood pressure and heart rate were measured on the first and fourth day of treatment 1 hour before and 1 and 5 hours after drug administration.
# normotensive rats = assay: Blood pressure and heart rate in the conscious normotensive rat (NR); type: in vivo; details: 5 mg/kg os
# Description: Blood pressure recordings have been made in conscious normotensive unrestrained rats weighing approximately 300 g, via a catheter chronically inserted into the left common carotid artery. Implantation of arterial cannula was made under sodium pentobarbital anesthesia (50 mg/kp i.p.) A 1 cm long incision was made through the previously shaved ventral surface of the neck and the tissues overlying the trachea parted by blunt dissection to reveal the carotid artery. The polyethylene catheter used was made with PE 50 tubing, previously filled with saline containing 250 I.U./ml heparin. The tip of the cannula was pushed at least 2 cm inside the vessel toward the heart. The cannula was then firmly tied and passed beneath the skin to emerge from a small incision in the back of the neck. During the post-operative period and before the start of each recording session, the cannula was flushed through daily with saline containing heparin (250 I.U./ml). The experiments were performed two days after surgery. Drugs were administered by gastric gavage.
# [2] = Acute toxicity (LD50) in mice; type: in vivo, mouse; details: mouse, in vivo; male mice; oral; observed for seven days
# Text: Evaluation of the Toxicity (LD50)
# Ten male mice for each group were orally treated with drugs at different dose levels for the determination of lethal dose 50 (LD50).
SMILES,"Change in BP, 1 hr after dose, first day ([1]; 5 mg/kg os) [mm Hg]","Change in BP, 5 hrs after dose, first day ([1]; 5 mg/kg os) [mm Hg]","Change in BP, 1 hr after dose, fourth day ([1]; 5 mg/kg os) [mm Hg]","Change in BP, 5 hrs after dose, fourth day ([1]; 5 mg/kg os) [mm Hg]","Change in BP, 1 hr after dose, first day ([1]; 2 mg/kg os) [mm Hg]","Change in HR, 1 hr after dose, first day ([1]; 2 mg/kg os) [b/min]","Change in HR, 5 hr after dose, first day ([1]; 2 mg/kg os)","Change in BP, 5 hrs after dose, first day ([1]; 2 mg/kg os) [mm Hg]","Change in BP, 1 hr after dose, fourth day ([1]; 2 mg/kg os) [mm Hg]","Change in HR, 1 hr after dose, fourth day ([1]; 2 mg/kg os) [b/min]","Change in HR, 5 hr after dose, fourth day ([1]; 2 mg/kg os)","Change in BP, 5 hrs after dose, fourth day ([1]; 2 mg/kg os) [mm Hg]","Change in HR, 1 hr after dose, first day ([1]; 5 mg/kg os) [b/min]","Change in HR, 5 hr after dose, first day ([1]; 5 mg/kg os)","Change in HR, 1 hr after dose, fourth day ([1]; 5 mg/kg os)","Change in HR, 5 hr after dose, fourth day ([1]; 5 mg/kg os) [b/min]","Change in Blood Pressure after Treatment, 30' (normotensive rats) [mm Hg]","Change in heart rate after treatment, 30' (normotensive rats) [b/min]","Change in Blood Pressure after Treatment, 60' (normotensive rats) [mm Hg]","Change in heart rate after treatment, 60' (normotensive rats) [b/min]",further results
"N#CC(CC1CC2c3cccc4[nH]cc(c34)CC2N(CC2CC2)C1)C(N)=O (stereo not drawn) [355/1323, 2-Cyano-3-(6'-methylcyclopropylergoline-8'β)-propionamide]",-15,-20,-20,-30,,,,,,,,,,,,,,,,,
"CCNC(=O)C(C#N)CC1CC2c3cccc4[nH]cc(c34)CC2N(CC2CC2)C1 (stereo not drawn) [355/1324, 2-Cyano-3-(6'-methylcyclopropylergoline-8β)-N-ethylpropionamide]",-20,-40,-40,-35,,,,,,,,,,,,,,,,,
"CC(C)N1C[C@H](CC(C#N)C(N)=O)C[C@@H]2c3cccc4[nH]cc(c34)C[C@H]21 (stereo partly drawn) [Example 37, 2-Cyano-3-(6'-isopropylergoline-8'β)-propionamide]",-30,-25,-45,-35,,,,,,,,,,,,,,,,,
"CCNC(=O)C(C#N)C[C@@H]1C[C@@H]2c3cccc4[nH]cc(c34)C[C@H]2N(C(C)C)C1 (stereo partly drawn) [Example 38, 2-Cyano-3-(6'-isopropylergoline-8'β)-N-ethyl propionamide]",-20,-10,-32,-28,,,,,,,,,,,,,,,,,
"CN1C[C@H](CC(C#N)C(=O)NCc2ccccc2)C[C@@H]2c3cccc4[nH]cc(c34)C[C@H]21 (stereo partly drawn) [Example 1131, 2-Cyano-3-(6'-methylergoline-8'β)-N-benzylpropionamide]",-48,-43,-17,-16,-26,-20,+5 b/min,-9,-22,-55,+5 b/min,-25,-18,+10 b/min,+18 b/min,-8,-22,-20,-22,-30,"Change in Blood Pressure after Treatment, 120' (normotensive rats): -23 mm Hg; Change in heart rate after treatment, 120' (normotensive rats): -20 b/min; Change in Blood Pressure after Treatment, 180' (normotensive rats): -20 mm Hg; Change in heart rate after treatment, 180' (normotensive rats): -20 b/min; Change in Blood Pressure after Treatment, 240' (normotensive rats): -19 mm Hg; Change in heart rate after treatment, 240' (normotensive rats): -10 b/min; Change in Blood Pressure after Treatment, 360' (normotensive rats): -10 mm Hg; Change in heart rate after treatment, 360' (normotensive rats): +10 b/min; Change in Blood Pressure after Treatment, 24h (normotensive rats): 0 mm Hg; Change in heart rate after treatment, 24h (normotensive rats): +10 b/min; LD50 at 168 h [2]: > 1000 mg/kg"
"CN1C[C@H](CC(C#N)C(=O)N2CCCC2)C[C@@H]2c3cccc4[nH]cc(c34)C[C@H]21 (stereo partly drawn) [Example 1133, 2-Cyano-3-(6'-methylergoline-8'β)-N-propionyl-pyrrolidine]",-24,-9,-42,-25,-20,-33,-28 b/min,-11,-21,-20,-3 b/min,-10,0,+13 b/min,-13 b/min,-8,-15,-25,-20,-45,"Change in Blood Pressure after Treatment, 120' (normotensive rats): -15 mm Hg; Change in heart rate after treatment, 120' (normotensive rats): -40 b/min; Change in Blood Pressure after Treatment, 180' (normotensive rats): -10 mm Hg; Change in heart rate after treatment, 180' (normotensive rats): -40 b/min; Change in Blood Pressure after Treatment, 240' (normotensive rats): -9 mm Hg; Change in heart rate after treatment, 240' (normotensive rats): -10 b/min; Change in Blood Pressure after Treatment, 360' (normotensive rats): 0 mm Hg; Change in heart rate after treatment, 360' (normotensive rats): -5 b/min; Change in Blood Pressure after Treatment, 24h (normotensive rats): +5 mm Hg; Change in heart rate after treatment, 24h (normotensive rats): 0 b/min; LD50 at 168 h [2]: 500 mg/kg"
